Source: patent US10882856B2 (BeiGene, Ltd., priority 2017, dated 2021)

Key:
[1] = target: T1, cellular TDO2 in HEK293-TDO2 cells (Homo sapiens, UniProt P48775); assay: 293-TDO2 cell-based assay (Kyn colorimetric); conditions: 48 hours of incubation
T1 construct: expressed in transfected cells; host or cells: HEK293 (ATCC), stably transfected
Summary of the method: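 HEK293 cells stably expressing TDO2 (10000/well, phenol red-free DMEM, 10% FBS) were dosed 4 h after plating and incubated 48 h at 37° C. Supernatant Kyn was measured after TCA precipitation by 4-(dimethylamino)benzaldehyde colour at 480 nm. IC50 came from four-parameter logistic fits.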

IDO1 [2] = target: T2, IDO1 (Homo sapiens, UniProt P14902); assay: IDO1 enzymatic assay; format: biochemical; parameters: His tag (N); made in house; host or cells: E. coli; conditions: read-out: Enzyme IC50 IDO1
Summary of the method: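 Compound was incubated with 50 nM His-tagged IDO1 from E. coli, 1.3 mM D-tryptophan, 5 mM L-ascorbic acid, methylene blue and 0.4 mg/mL catalase in 50 mM potassium phosphate pH 7.5, 0.1% BSA, at 24 °C for 1.5 hours. Activity was the slope of N'-formylkynurenine formation read continuously at 321 nm for 1 hour. IC50 was obtained from remaining activity versus compound concentration.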

IDO1 [3] = target: T2, IDO1; assay: Hela cell-based IDO1 assay; conditions: Hela cells
Summary of the method: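 Kynurenine was measured at 480 nm in trichloroacetic acid-deproteinised supernatant after adding 2% 4-(dimethylamino)benzaldehyde. This supernatant came from HeLa cells seeded at 8000 per well in 96-well plates in phenol red-free DMEM with 10% FBS and, from 4 hours after seeding, exposed for 48 hours at 37 °C, 5% CO2 to DMSO-diluted compound dilutions, IFN-γ (final 100 ng/mL) and 0.4 mM L-Trp. The resulting data were fitted with a four-parameter logistic model in XLfit. Potency was taken from those fits.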

T1 sequence (P48775 whole entry): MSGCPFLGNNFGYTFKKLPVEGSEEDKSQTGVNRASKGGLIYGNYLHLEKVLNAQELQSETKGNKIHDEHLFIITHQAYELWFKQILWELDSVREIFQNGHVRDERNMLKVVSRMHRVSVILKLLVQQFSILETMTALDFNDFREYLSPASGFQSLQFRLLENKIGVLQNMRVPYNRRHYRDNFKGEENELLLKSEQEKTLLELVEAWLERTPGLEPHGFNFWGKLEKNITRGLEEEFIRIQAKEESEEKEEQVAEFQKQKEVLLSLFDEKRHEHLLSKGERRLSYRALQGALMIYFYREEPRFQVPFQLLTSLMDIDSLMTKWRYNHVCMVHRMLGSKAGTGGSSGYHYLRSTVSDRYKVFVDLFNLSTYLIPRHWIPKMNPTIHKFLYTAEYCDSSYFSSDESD
T2 sequence (P14902 whole entry): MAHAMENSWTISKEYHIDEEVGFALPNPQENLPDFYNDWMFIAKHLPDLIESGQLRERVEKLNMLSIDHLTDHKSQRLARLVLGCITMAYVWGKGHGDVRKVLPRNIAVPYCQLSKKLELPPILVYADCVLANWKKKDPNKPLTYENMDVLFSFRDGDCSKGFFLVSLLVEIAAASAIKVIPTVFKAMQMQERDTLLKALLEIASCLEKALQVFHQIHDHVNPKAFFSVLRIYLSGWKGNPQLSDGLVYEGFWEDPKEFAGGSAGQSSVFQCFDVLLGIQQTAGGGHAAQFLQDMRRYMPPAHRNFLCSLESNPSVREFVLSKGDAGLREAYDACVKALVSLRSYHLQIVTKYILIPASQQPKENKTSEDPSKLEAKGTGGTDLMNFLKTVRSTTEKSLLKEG

| EC50 [1] [nM] | IC50 (IDO1 [2]) [nM] | EC50 (IDO1 [3]) [nM] | Structure (SMILES) |
| --- | --- | --- | --- |
| > 10000 | > 10000 | > 10000 | N#Cc1ccc(N2CCC(C(O)c3c(C4CC4)ccn4cncc34)CC2)cc1 (single isomer, unassigned) [Example C144b] |
| > 10000 | 160 | 1100 | OC(c1c(C2CC2)ccn2cncc12)C1CCC(c2ccccc2C(F)(F)F)CC1 (stereo not drawn) [Example C116] |
| > 10000 | > 10000 | 9490 | O[C@@H](c1c(C2CC2)ccc2cncn12)[C@H]1CC[C@H](c2ccc(F)c(F)c2F)CC1 (single isomer, unassigned) [Example D145b] |
| > 10000 | 40 | 748 | N#Cc1ccc(N2CCC(C(O)c3c(C4CC4)ccn4cncc34)CC2)cc1 (stereo not drawn) [Example C144, 4-(4-((7-cyclopropylimidazo[1,5-a]pyridin-8-yl)(hydroxy)methyl)piperidin-1-yl)benzonitrile] |
| > 10000 | 3800 | 7580 | O[C@@H](c1c(C2CC2)ccc2cncn12)[C@H]1CC[C@H](c2cccc3ncccc32)CC1 (single isomer, unassigned) [Example D141b] |
| > 10000 | > 10000 | 5500 | O[C@@H](c1c(C2CC2)ccc2cncn12)C1CCN(c2ccc(Cl)cc2)CC1 (single isomer, unassigned) [Example D174b] |
| > 10000 | > 10000 | 4500 | COc1ccc([C@H]2CC[C@H]([C@@H](O)c3c(C4CC4)ccc4cncn34)CC2)c(Cl)c1 (single isomer, unassigned) [Example D147b] |
| > 10000 | 62 | 6310 | OC(c1cc(Cl)cc2cncn12)C1CCC(c2ccc(Cl)cc2)CC1 (stereo not drawn) [Example E101, (7-chloroimidazo[1,5-a]pyridin-5-yl)(4-(4-chlorophenyl)cyclohexyl)methanol] |
| > 10000 | 74 | 1300 | OC(c1c(C2CC2)ccn2cncc12)C1CCN(c2cccnc2)CC1 (stereo not drawn) [Example C148, (7-cyclopropylimidazo[1,5-a]pyridin-8-yl)(1-(pyridin-3-yl)piperidin-4-yl)methanol] |
| > 10000 | 38 | 42 | CC(C)c1ccc2cncn2c1C(O)C1CCC(c2cccc(Cl)c2)CC1 (stereo not drawn) [Example D168, (4-(3-chlorophenyl)cyclohexyl)(6-isopropylimidazo[1,5-a]pyridin-5-yl)methanol] |
| > 10000 | > 10000 | 3900 | O[C@@H](c1c(C2CC2)ccc2cncn12)[C@H]1CC[C@H](c2ccc(OC(F)(F)F)cc2)CC1 (single isomer, unassigned) [Example D105b] |
| > 10000 | 26 | 187 | OC(c1c(C2CC2)ccc2cncn12)C1CCN(c2ccc3nccc(Cl)c3c2)CC1 (stereo not drawn) [Example D179, (1-(4-chloroquinolin-6-yl)piperidin-4-yl)(6-cyclopropylimidazo[1,5-a]pyridin-5-yl)methanol] |
| > 10000 | 58 | 836 | CC(=O)c1ccc(C2CCC(C(O)c3c(C4CC4)ccc4cncn34)CC2)cc1 (stereo not drawn) [Example D158] |
| > 10000 | 30 | 1480 | OC(c1c(C2CC2)ccc2cncn12)C1CCC(c2ccc(C(F)(F)F)nc2)CC1 (stereo not drawn) [Example D107, (6-cyclopropylimidazo[1,5-a]pyridin-5-yl)(4-(6-(trifluoromethyl)pyridin-3-yl)cyclohexyl)methanol] |
| > 10000 | 62 | 95 | COCCOc1ccc(C2CCC(C(O)c3c(C4CC4)ccn4cncc34)CC2)cc1 (racemic) [Example C103, (7-cyclopropylimidazo[1,5-a]pyridin-8-yl)(4-(4-(2-methoxyethoxy)phenyl)cyclohexyl)methanol] |
| > 10000 | 26 | 40 | OC(c1c(C2CC2)ccn2cncc12)C1CCN(c2ccc(F)c3cccnc23)CC1 (single isomer, unassigned) [Example C155b] |
| > 10000 | 21 | 56 | O[C@H](c1c(C2CC2)ccc2cncn12)[C@H]1CC[C@H](c2ccc(F)c(Cl)c2)CC1 (single isomer, unassigned) [Example D129a] |
| > 10000 | > 10000 | 6990 | O[C@@H](c1c(C2CC2)ccc2cncn12)[C@H]1CC[C@H](c2cccc(F)c2)CC1 (single isomer, unassigned) [Example D156b] |
| > 10000 | 33 | 62 | COc1cccc(C2CCC(C(O)c3c(C4CC4)ccc4cncn34)CC2)c1 (stereo not drawn) [Example D143, (6-cyclopropylimidazo[1,5-a]pyridin-5-yl)(4-(3-methoxyphenyl)cyclohexyl)methanol] |
| > 10000 | 75 | 977 | COc1ccc(C2CCC(C(O)c3c(C4CC4)ccc4cncn34)CC2)c2ccccc12 (stereo not drawn) [Example D139, (6-cyclopropylimidazo[1,5-a]pyridin-5-yl)(4-(4-methoxynaphthalen-1-yl)cyclohexyl)methanol] |
| > 10000 | 36 | 37 | OC(c1c(C2CC2)ccc2cncn12)C1CCC(c2ccnc3ccc(F)cc23)CC1 (stereo not drawn) [Example D150, (6-cyclopropylimidazo[1,5-a]pyridin-5-yl)(4-(6-fluoroquinolin-4-yl)cyclohexyl)methanol] |
| > 10000 | 1700 | > 10000 | Oc1ccccc1[C@H]1CC[C@H]([C@@H](O)c2c(C3CC3)ccc3cncn23)CC1 (single isomer, unassigned) [Example D112b] |
| > 10000 | 1300 | 6140 | O[C@@H](c1c(C2CC2)ccc2cncn12)[C@H]1CC[C@H](c2ccccc2)CC1 (single isomer, unassigned) [Example D101b] |
| > 10000 | 29 | 3700 | O[C@H](c1cc(Cl)cc2cncn12)[C@H]1CC[C@H](c2ccc3ccccc3c2)CC1 (single isomer, unassigned) [Example E104a] |
| > 10000 | 1900 | 6050 | O[C@@H](c1c(C2CC2)ccn2cncc12)[C@H]1CC[C@H](c2cccc3ncccc32)CC1 (single isomer, unassigned) [Example C126b] |
| > 10000 | 67 | 149 | OC(c1c(C2CC2)ccn2cncc12)C1CCN(c2cccc(F)c2)CC1 (stereo not drawn) [Example C138, (7-cyclopropylimidazo[1,5-a]pyridin-8-yl)(1-(3-fluorophenyl)piperidin-4-yl)methanol] |
| > 10000 | 2300 | > 10000 | OC(c1c(C2CC2)ccn2cncc12)C1CCN(c2ccncc2)CC1 (stereo not drawn) [Example C147, (7-cyclopropylimidazo[1,5-a]pyridin-8-yl)(1-(pyridin-4-yl)piperidin-4-yl)methanol] |
| > 10000 | 28 | 228 | Nc1ccc(C2CCC(C(O)c3c(C4CC4)ccc4cncn34)CC2)cc1 (stereo not drawn) [Example D122, (4-(4-aminophenyl)cyclohexyl)(6-cyclopropylimidazo[1,5-a]pyridin-5-yl)methanol] |
| > 10000 | 18 | 31 | O[C@H](c1c(C2CC2)ccc2cncn12)[C@H]1CC[C@H](c2ccc(F)c(F)c2)CC1 (single isomer, unassigned) [Example D126a] |
